Laboratory results from patent publication US12006276B2, “Dibromobenzyl derivative, stereoisomer or salt thereof, and preparation method and application of dibromobenzyl derivative” (CHENGDU SHIBEIKANG BIOMEDICAL TECHNOLOGY CO., LTD., priority 2019, dated 2024).
Structures can show the parent of a compound that is named as a salt.

Experiments:
[1] = tested on: SD rats; experiment: Capillary expectoration test in rats; type: in vivo, rat; details: for 90-min length of phlegm expelled: SD rats, 15 mg/kg via tail vein, capillary tube in trachea, x ± s, n=10; for Expectorant effect compared with the ambroxol hydrochloride group (in words): rats, 15 mg/kg, P<0.05 vs ambroxol hydrochloride
Description: Capillary Expectoration Test in Rats
The female and male SD rats with body weights ranging from 180 g to 220 g are randomLy allocated into 9 groups (n=10 rats). Before measuring the length of phlegm expelled, the rats are prohibited to eat but allowed to drink for 12 hrs, and then administrated via tail veins with corresponding products (dissolved in normal saline to adjust pH) or normal saline. After 30 mins, urethane saline solution (1 g/kg) is injected intraperitoneally for anesthesia, and the rats are fixed in a supine position for neck incision and trachea separation. […] The angle between the capillary tube and the trachea is adjusted to collect the phlegm, and the expectoration effect is evaluated based on a total length (mm) of the phlegm in the capillary tube.

[2] = tested on: mice; experiment: Phenol red expectoration test in mice; type: in vivo, mouse; details: for Excretory amount of phenol red (OD value): 30 mg/kg as free alkali, twice via tail vein, trachea phenol red at 546 nm, x ± s, n=12; for Excretory amounts of phenol red compared with the control group (in words) / Excretory amounts of phenol red compared with the ambroxol hydrochloride group (in words): 30 mg/kg; for Excretory amounts of phenol red compared with the control group (in words): p<0.05 vs control; for Excretory amounts of phenol red compared with the ambroxol hydrochloride group (in words): P<0.05 vs ambroxol hydrochloride
Description: Phenol Red Expectoration Test in Mice
Methods: Seventy-two female and male mice are randomLy allocated into a control group (normal saline), an Example 1 group (30 mg/kg, as free alkali), an Example 3 group (30 mg/kg, as free alkali), an Example 5 group (30 mg/kg, as free alkali), an Example 12 group (30 mg/kg, as free alkali) and an ambroxol hydrochloride group (30 mg/kg, as free alkali) (n=12 mice); These mice are administrated twice in successive via tail veins with corresponding products (dissolved in normal saline to adjust pH) or normal saline, and then receive 5% phenol red saline solution (0.5 g/kg) by hypodermic administration 15 mins after the last dose. […] The effects on excretory amounts of phenol red from trachea of mice among groups are analyzed and compared, and results are shown in Table 2: […]

[3] = Pharmacokinetics test in rats; type: in vivo, rat; details: intravenous; for MRT / clearance / half-life / AUC(0-inf): both sexes, rat, plasma, 10 mg/kg as free alkali; for MRT / clearance / half-life: n=6; for AUC(0-inf): n=6, read-out: AUC AUC0-inf; for Half-life, clearance, MRT and AUC compared with the ambroxol hydrochloride group (in words): P<0.05
Description: Pharmacokinetics Test in Rats
Methods: Twenty-four female and male rats are randomLy allocated into an Example 1 compound group (10 mg/kg, as free alkali), an Example 3 compound group (10 mg/kg, as free alkali), an Example 12 compound group and an ambroxol hydrochloride group (10 mg/kg, as free alkali) (n=6); These rats are given corresponding products (dissolved in normal saline to adjust pH) intravenously. About 0.2 mL of blood samples is respectively collected from jugular veins before and 15.0 min, 30.0 min, 1.0 h, 2.0 h, 3.0 h, 4.0 h, 6.0 h, 8.0 h, 12.0 h and 24.0 h after the administration, and then centrifuged at a high speed (7800×g) for 15 min in a tube containing EDTA-K2. The separated plasma is stored at −15° C.˜−35° C.

For `Nc1c(Br)cc(Br)cc1CN[C@H]1CC[C@H](O)CC1` [Ambroxol hydrochloride, reference compound], the “90-min length of phlegm expelled” value [1] was 29.9 ± 4.96 mm, the “Excretory amount of phenol red (OD value)” value [2] was 0.131 ± 0.015 OD value and the “Excretory amounts of phenol red compared with the control group (in words)” value [2] was “significantly increase”. The MRT [3] was 1.18 ± 0.2 h, the clearance [3] was 101 mL/min/kg and the half-life [3] was 1.98 ± 0.34 h. For the same molecule, the AUC(0-inf) [3] was 1650 ± 71.9 ng·h/mL.

With `Nc1c(Br)cc(Br)cc1CNC12CC3CC(CC(O)(C3)C1)C2` [Example 1, 3-((2-amino-3,5-dibromobenzyl)amino)adamantane-1-ol] the “90-min length of phlegm expelled” value [1] was 39.9 ± 5.35 mm, the “Expectorant effect compared with the ambroxol hydrochloride group (in words)” value [1] was “remarkably superior to the ambroxol hydrochloride” and the “Excretory amount of phenol red (OD value)” value [2] was 0.220 ± 0.063 OD value. For the same molecule, the “Excretory amounts of phenol red compared with the ambroxol hydrochloride group (in words)” value [2] was “remarkably superior to the ambroxol hydrochloride”, the “Excretory amounts of phenol red compared with the control group (in words)” value [2] was “significantly increase” and the MRT [3] was 2.58 ± 0.41 h. For the same molecule, the clearance [3] was 34.9 mL/min/kg, the half-life [3] was 3.58 ± 0.45 h and the AUC(0-inf) [3] was 4470 ± 250 ng·h/mL. For the same molecule, the “Half-life, clearance, MRT and AUC compared with the ambroxol hydrochloride group (in words)” value [3] was “significantly superior to the ambroxol hydrochloride group”.

In the case of `Nc1c(Br)cc(Br)cc1CN[C@@H]1CCC[C@H]1O` [Example 3, (1R,2R)-2-((2-amino-3,5-dibromobenzyl)amino)-cyclopentanol], the “90-min length of phlegm expelled” value [1] is reported as 37.8 ± 6.45 mm, the “Expectorant effect compared with the ambroxol hydrochloride group (in words)” value [1] is reported as “remarkably superior to the ambroxol hydrochloride” and the “Excretory amount of phenol red (OD value)” value [2] is reported as 0.218 ± 0.052 OD value. The “Excretory amounts of phenol red compared with the ambroxol hydrochloride group (in words)” value [2] was “remarkably superior to the ambroxol hydrochloride”, the “Excretory amounts of phenol red compared with the control group (in words)” value [2] was “significantly increase” and the MRT [3] was 2.31 ± 0.36 h. For the same molecule, the clearance [3] was 47.7 mL/min/kg, the half-life [3] was 3.12 ± 0.34 h and the AUC(0-inf) [3] was 3650 ± 180 ng·h/mL. The “Half-life, clearance, MRT and AUC compared with the ambroxol hydrochloride group (in words)” value [3] was “significantly superior to the ambroxol hydrochloride group”.

With `CC12CC3CC(C1)CC(NCc1cc(Br)cc(Br)c1N)(C3)C2` [Example 5, (2-amino-3,5-dibromobenzyl)-3-methyl-adamantane-1-amine] the “90-min length of phlegm expelled” value [1] was 36.9 ± 5.45 mm and the “Excretory amount of phenol red (OD value)” value [2] was 0.201 ± 0.062 OD value.

With `Nc1c(Br)cc(Br)cc1CNC12CC3CC(C1)CC(C(F)(F)F)(C3)C2` [Example 6, (2-amino-3,5-dibromobenzyl)-3-trifluoromethyl-adamantane-1-amine] the “90-min length of phlegm expelled” value [1] was 35.2 ± 4.79 mm.

For `Nc1c(Br)cc(Br)cc1CN[C@@H]1CCC[C@@H]1C(F)(F)F` [Example 7, (1R,2S)-2-trifluoromethyl-((2-amino-3,5-dibromobenzyl)amino)-cyclopentane], the “90-min length of phlegm expelled” value [1] was 31.8 ± 5.73 mm.

With `Nc1c(Br)cc(Br)cc1CNC12CC3CC(CC(C3)C1F)C2` (stereo not drawn) [Example 8, (2-amino-3,5-dibromobenzyl)-2-fluoro-adamantane-1-amine] the “90-min length of phlegm expelled” value [1] was 35.8 ± 5.98 mm.

With `Nc1c(Br)cc(Br)cc1CNC1C2CC3CC1CC(O)(C3)C2` (stereo not drawn) [Example 12, 4-((2-amino-3,5-dibromobenzyl)amino)adamantane-1-ol] the “90-min length of phlegm expelled” value [1] was 39.8 ± 5.31 mm, the “Expectorant effect compared with the ambroxol hydrochloride group (in words)” value [1] was “remarkably superior to the ambroxol hydrochloride” and the “Excretory amount of phenol red (OD value)” value [2] was 0.221 ± 0.059 OD value. For the same molecule, the “Excretory amounts of phenol red compared with the ambroxol hydrochloride group (in words)” value [2] was “remarkably superior to the ambroxol hydrochloride”, the “Excretory amounts of phenol red compared with the control group (in words)” value [2] was “significantly increase” and the MRT [3] was 2.65 ± 0.42 h. For the same molecule, the clearance [3] was 35.8 mL/min/kg, the half-life [3] was 3.43 ± 0.35 h and the AUC(0-inf) [3] was 4490 ± 240 ng·h/mL. For the same molecule, the “Half-life, clearance, MRT and AUC compared with the ambroxol hydrochloride group (in words)” value [3] was “significantly superior to the ambroxol hydrochloride group”.
